# Experimental data reported in ChEMBL document CHEMBL1156161, “Assessing the trypanocidal potential of natural and semi-synthetic diketopiperazines from two deep water marine-derived fungi” (Bioorg Med Chem, 2010).
# Columns and labels:
# [1] = test system: Trypanosoma brucei brucei; assay: Antitrypanosomal activity against Trypanosoma brucei brucei 427-221a after 40 hrs by bioluminescence assay; type: functional, organism-based; conditions: for IC50 / EC50: Trypanosoma brucei, 427-221a, 40 h
# Jurkat [2] = assay: Cytotoxicity against human Jurkat cells after 40 hrs bioluminescence assay; type: cell-based
# [3] = Inhibition of Trypanosoma brucei brucei recombinant cathepsin B assessed after 5 mins by spectrofluorimetry
# [4] = Selectivity index, ratio of IC50 for human Jurkat cells to IC50 for Trypanosoma brucei brucei; type: toxicity, cell-based; conditions: for Ratio IC50: jurkat; for selectivity ratio: Jurkat cells, read-out: Ratio IC50
# Rhodesain = Rhodesain (Trypanosoma brucei rhodesiense, UniProt Q95PM0); assay: Inhibition of […] after 5 mins by spectrofluorimetry
# [5] = Selectivity index, ratio of EC50 for HEK293 cells to EC50 for Trypanosoma brucei brucei; type: toxicity, cell-based; conditions: human, read-out: Ratio EC50
# HEK293 = assay: Cytotoxicity against HEK293 cells; type: cell-based; conditions: Homo sapiens
# [6] = test system: Trypanosoma brucei rhodesiense; assay: Antitrypanosomal activity against Trypanosoma brucei rhodesiense after 40 hrs by bioluminescence assay; type: functional
# Macrophage = assay: Immunomodulatory activity in macrophage assessed as inhibition of phagocytosis; type: functional; conditions: read-out: ED50 (the source's name)
# HeLa = assay: Cytotoxicity against human HeLa cells; type: functional, cell-based
# [7] = Toxicity in ip dosed ddY mouse; type: organism-based; conditions: in vivo
# HUVEC = assay: Cytotoxicity against HUVEC; type: cell-based; conditions: Homo sapiens
# [8] = Inhibition of PAF
# [9] = target: Thioredoxin reductase 1, cytoplasmic (Homo sapiens, UniProt Q16881); assay: Inhibition of thioredoxin reductase 1
# A549 = assay: Cytotoxicity against human A549 cells; type: functional, cell-based
# [10] = Inhibition of Su(var)3-9
# [11] = target: Mycothiol S-conjugate amidase (Mycobacterium tuberculosis, UniProt P9WJN1); assay: Inhibition of Mycobacterium tuberculosis mycothiol-S-conjugate amidase
# [12] = Immunosuppression of mouse spleen lymphocytes; type: functional, tissue-based; conditions: lymphocyte
# [13] = Inhibition of tubulin polymerization assessed as blockade of microtubule assembly at 250 uM; design: scale not given: the % may be the effect or the level left
# Macrophomina phaseolina [14] = assay: Antimicrobial activity against Rhizoctonia bataticola; type: functional; conditions: read-out: ED50 (the source's name)
# [15] = Cytotoxicity against rainbow trout RTS11 cells; type: cell-based; conditions: Oncorhynchus mykiss
# Athelia rolfsii = assay: Antimicrobial activity against Sclerotium rolfsii; type: functional; conditions: Agroathelia rolfsii; read-out: ED50 (the source's name)
# Homo sapiens = species on record: Homo sapiens; assay: Induction of apoptosis in human HSC assessed as required active concentration; type: functional
# jurkat [16] = assay: Activation of NF-kappaB in human jurkat cells assessed as active concentration required; type: cell-based
# [17] = target: Acetolactate synthase catalytic subunit, mitochondrial (Saccharomyces cerevisiae S288c, UniProt P07342); assay: Inhibition of Saccharomyces cerevisiae acetolactate synthase
# [18] = Cytotoxicity against chinook salmon CHSE-214 cells; type: cell-based; conditions: Oncorhynchus tshawytscha
# [19] = Cytotoxicity against rainbow trout RTG2 cells; type: cell-based; conditions: Oncorhynchus mykiss
# Tetrahymena pyriformis = assay: Antiprotozoal activity against Tetrahymena pyriformis; type: functional, organism-based
# Pythium aphanidermatum = assay: Antimicrobial activity against Pythium aphanidermatum; type: functional; conditions: read-out: ED50 (the source's name)
# Rhizoctonia solani = assay: Antimicrobial activity against Rhizoctonia solani; type: functional; conditions: read-out: ED50 (the source's name)
# Plasmodium falciparum = assay: Antiparasitic activity against chloroquine-resistant Plasmodium falciparum K1; type: functional, organism-based
# Macrophomina phaseolina [20] = assay: Antimicrobial activity against Macrophomina phaseolina; type: functional; conditions: read-out: ED50 (the source's name)
# [21] = Ciliostatic activity against human respiratory epithelium assessed as required active concentration; type: functional
# [22] = Inhibition of chymotrypsin-like activity of 20S proteasome activity
# [23] = Inhibition of NADPH oxidase
# [24] = test system: Globisporangium debaryanum; assay: Antimicrobial activity against Pythium debaryanum; type: functional; conditions: read-out: ED50 (the source's name)
# [25] = Selectivity index, ratio of IC50 for rat L6 cells to IC50 for Trypanosoma brucei brucei
# MCF7 = assay: Cytotoxicity against human MCF7 cells; type: functional, cell-based
# MDA-MB-468 = assay: Cytotoxicity against human MDA-MB-468 cells; type: functional, cell-based
# Mus musculus = assay: Neurotoxicity in ip dosed Swiss mouse assessed as drug level required for induction of tremor; type: toxicity, organism-based; conditions: in vivo
# [26] = Cell cycle arrest in temperature sensitive mouse FT210 cells assessed as accumulation at M phase; type: functional, cell-based
# [27] = Induction of mutagenesis in microsomes assessed as drug level required by Ames assay; design: species or system Microsome
# [28] = Toxicity in ip dosed mouse; type: organism-based; conditions: in vivo
# [29] = Induction of mutagenesis in Salmonella Typhimurium assessed as drug level required by Ames assay; type: toxicity; conditions: salmonella enterica subsp. enterica serovar typhimurium
# [30] = test system: Trypanosoma brucei brucei; assay: Antitrypanosomal activity against Trypanosoma brucei brucei at 1.25 ug/ml after 40 hrs by bioluminescence assay relative to control; type: functional
# Sequence of Rhodesain (Q95PM0 whole entry): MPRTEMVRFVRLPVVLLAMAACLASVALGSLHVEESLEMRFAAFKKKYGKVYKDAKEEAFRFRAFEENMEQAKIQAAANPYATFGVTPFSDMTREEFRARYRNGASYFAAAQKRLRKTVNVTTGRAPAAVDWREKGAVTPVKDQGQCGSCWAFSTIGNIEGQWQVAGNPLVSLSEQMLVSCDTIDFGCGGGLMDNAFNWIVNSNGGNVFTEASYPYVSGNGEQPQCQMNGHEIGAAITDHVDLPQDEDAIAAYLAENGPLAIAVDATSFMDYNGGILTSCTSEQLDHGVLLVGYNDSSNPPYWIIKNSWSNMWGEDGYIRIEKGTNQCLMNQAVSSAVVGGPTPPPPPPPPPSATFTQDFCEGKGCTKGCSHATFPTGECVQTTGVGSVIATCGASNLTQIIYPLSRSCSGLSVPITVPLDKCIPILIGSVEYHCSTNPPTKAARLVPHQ
# Sequence of Mycothiol S-conjugate amidase (P9WJN1 whole entry): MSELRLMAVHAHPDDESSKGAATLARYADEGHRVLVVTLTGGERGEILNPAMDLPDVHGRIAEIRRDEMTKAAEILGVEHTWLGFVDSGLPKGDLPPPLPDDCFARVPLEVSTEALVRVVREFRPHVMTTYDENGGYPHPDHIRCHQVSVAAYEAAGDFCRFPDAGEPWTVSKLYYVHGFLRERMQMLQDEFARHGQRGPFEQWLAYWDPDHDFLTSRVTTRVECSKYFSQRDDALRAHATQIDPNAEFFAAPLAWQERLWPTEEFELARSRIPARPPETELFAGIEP
# Sequence of Thioredoxin reductase 1, cytoplasmic (Q16881 whole entry): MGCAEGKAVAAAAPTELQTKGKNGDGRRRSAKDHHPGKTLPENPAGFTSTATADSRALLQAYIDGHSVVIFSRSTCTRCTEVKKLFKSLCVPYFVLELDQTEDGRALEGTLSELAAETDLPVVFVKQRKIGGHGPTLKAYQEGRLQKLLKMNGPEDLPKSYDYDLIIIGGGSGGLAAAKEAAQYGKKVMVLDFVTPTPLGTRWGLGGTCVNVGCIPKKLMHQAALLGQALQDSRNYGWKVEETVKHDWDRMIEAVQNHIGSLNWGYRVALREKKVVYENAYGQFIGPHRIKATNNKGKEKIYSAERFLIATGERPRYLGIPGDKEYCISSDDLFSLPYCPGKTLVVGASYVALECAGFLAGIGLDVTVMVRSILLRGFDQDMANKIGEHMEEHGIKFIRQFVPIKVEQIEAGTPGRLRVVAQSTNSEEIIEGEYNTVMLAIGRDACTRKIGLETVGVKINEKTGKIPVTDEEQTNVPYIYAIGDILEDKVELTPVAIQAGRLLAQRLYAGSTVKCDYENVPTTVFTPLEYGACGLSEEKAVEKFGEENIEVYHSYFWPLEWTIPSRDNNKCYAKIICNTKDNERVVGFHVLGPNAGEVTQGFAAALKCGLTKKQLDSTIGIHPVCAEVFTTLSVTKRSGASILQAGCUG
# Sequence of Acetolactate synthase catalytic subunit, mitochondrial (P07342 whole entry): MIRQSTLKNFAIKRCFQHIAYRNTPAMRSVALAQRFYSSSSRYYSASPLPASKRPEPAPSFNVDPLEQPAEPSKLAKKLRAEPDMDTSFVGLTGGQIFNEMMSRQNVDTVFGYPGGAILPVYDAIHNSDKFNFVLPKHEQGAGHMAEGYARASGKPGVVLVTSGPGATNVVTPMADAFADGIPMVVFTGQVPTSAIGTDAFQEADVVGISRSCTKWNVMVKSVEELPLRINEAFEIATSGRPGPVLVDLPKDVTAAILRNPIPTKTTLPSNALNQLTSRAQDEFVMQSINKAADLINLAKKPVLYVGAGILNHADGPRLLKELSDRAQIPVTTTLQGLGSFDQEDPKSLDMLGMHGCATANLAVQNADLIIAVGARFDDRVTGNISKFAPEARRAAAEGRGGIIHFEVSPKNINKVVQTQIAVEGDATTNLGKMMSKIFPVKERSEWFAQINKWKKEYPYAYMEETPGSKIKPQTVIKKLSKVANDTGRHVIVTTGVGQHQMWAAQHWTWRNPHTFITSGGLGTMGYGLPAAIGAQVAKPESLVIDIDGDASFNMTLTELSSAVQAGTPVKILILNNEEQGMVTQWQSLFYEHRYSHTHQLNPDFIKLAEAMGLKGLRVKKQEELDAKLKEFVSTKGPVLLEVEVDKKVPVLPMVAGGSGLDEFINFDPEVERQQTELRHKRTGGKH
structure (smiles),measurement,setting,value
CS[C@]1(COC(C)=O)C(=O)N2[C@H]3C(=CC=C[C@@H]3O)C[C@@]2(SC)C(=O)N1C,IC50,[1],> 50 µM
CS[C@]1(CO)C(=O)N2[C@H]3C(=CC=C[C@@H]3OC(C)=O)C[C@@]2(SC)C(=O)N1C,IC50,[1],6.5 µM
same,IC50,Jurkat [2],125 µM
same,IC50,[3],> 50 µM
same,Ratio IC50,[4],19.2 ratio
same,IC50,Rhodesain,12.8 µM
N#Cc1nc(NCc2ccc(Cl)c(Cl)c2)c2ncn(CCCO)c2n1,EC50,[1],0.11 µM
same,selectivity ratio,[5],227
same,EC50,HEK293,25 µM
"CS[C@]1(C)NC(=O)[C@](Cc2c[nH]c3ccccc23)(SC)NC1=O [3,6 BISMETHYL(THIOCYCLO)ALANYLTRYPTOPHYL]",IC50,[1],> 50 µM
C/C(=C\Cc1c(O)c(Cl)c(C)c(C=O)c1O)CC/C=C(\C)[C@@H]1CC(=O)C(C)(C)O1 [ASCOFURANONE],IC100,[1],0.03 µM
C/C=C(\C)[C@@H]1C=C[C@@H]2C[C@H](C)C[C@H](C)C2[C@@H]1C(=O)C1=CC(C)(OCCCC)NC1=O (stereo partly specified) [ASCOSALIPYRROLIDINONE A],MIC,[6],30 µg/mL
CS[C@]1(CO)C(=O)N2[C@H]3C(=CC=C[C@@H]3O)C[C@@]2(SC)C(=O)N1C [BIS(DETHIO)BIS(METHYLTHIO)GLIOTOXIN],EC50,Macrophage,> 10 µM
same,IC50,[1],40.2 µM
same,IC50,HeLa,> 2.81 µM
same,IC50,Jurkat [2],140 µM
same,IC50,[3],> 50 µM
same,LD50,[7],> 500 mg/kg
same,selectivity ratio,[4],3.5
same,IC50,HUVEC,1.12 µM
same,IC50,Rhodesain,> 50 µM
same,IC50,[8],8.4 µM
CN1C(=O)[C@@]23C[C@]4([C@]56C[C@@]78SS[C@@](CO)(C(=O)N7[C@H]5Nc5ccccc56)N(C)C8=O)c5ccccc5N[C@@H]4N2C(=O)[C@]1(CO)SS3 [CHAETOCIN],IC50,[9],4.6 µM
same,IC50,[1],0.002 µM
same,IC50,A549,< 0.025 µM
same,IC50,Jurkat [2],< 0.6 µM
same,IC50,[3],> 50 µM
same,IC50,[10],0.6 µM
same,IC50,Rhodesain,> 50 µM
CS[C@]1(Cc2c[nH]c3ccccc23)NC(=O)[C@](CO)(SC)N(C)C1=O [CHETOSEMINUDIN B],IC50,[11],70 µM
same,IC50,[1],5.9 µM
same,IC50,[12],24 µM
same,IC50,Jurkat [2],94.9 µM
same,IC50,[3],> 50 µM
same,Ratio IC50,[4],16.1 ratio
same,IC50,Rhodesain,> 50 µM
COc1ccc2c3c([nH]c2c1)[C@H](C=C(C)C)N1C[C@@H]2CCCN2C[C@@]1(O)[C@H]3O [CYCLOTRYPROSTATIN A],IC50,[1],> 50 µM
same,Activity,[13],66.4%
CS[C@]1(CO)C(=O)N2c3c(O)cccc3C[C@@]2(SC)C(=O)N1C [DEHYDROBIS(METHYLTHIO)GLIOTOXIN],IC50,[1],8.5 µM
same,IC50,Jurkat [2],141 µM
same,IC50,[3],> 50 µM
same,Ratio IC50,[4],16.6 ratio
same,IC50,Rhodesain,19.5 µM
same,IC50,[8],16.9 µM
CS[C@]1(COC(C)=O)C(=O)N2[C@H]3C(=CC=C[C@@H]3OC(C)=O)C[C@@]2(SC)C(=O)N1C [DIACETYLBIS(METHYLTHIO)GLIOTOXIN],IC50,[1],35.5 µM
same,IC50,Jurkat [2],56 µM
same,IC50,[3],> 50 µM
same,Ratio IC50,[4],1.6 ratio
same,IC50,Rhodesain,> 50 µM
CN1C(=O)[C@]23CC4=CC=C[C@H](O)[C@H]4N2C(=O)[C@@]1(CO)SS3 [GLIOTOXIN],EC50,Macrophomina phaseolina [14],0.9 µM
same,EC50,Macrophage,0.104 µM
same,IC50,[11],50 µM
same,IC50,[1],0.01 µM
same,EC50,[15],1.35 µM
same,IC50,HeLa,2.45 µM
same,IC50,A549,0.003 µM
same,IC50,Jurkat [2],< 1 µM
same,IC50,[3],0.5 µM
same,EC50,Athelia rolfsii,6.47 µM
same,Activity,Homo sapiens,0.3 µM
same,Activity,jurkat [16],300 nM
same,IC50,[17],0.2 µM
same,LD50,[7],17.9 mg/kg
same,EC50,[18],1.65 µM
same,EC50,[19],2 µM
same,EC50,Tetrahymena pyriformis,0.38 µM
same,EC50,Pythium aphanidermatum,36.9 µM
same,EC50,Rhizoctonia solani,9.75 µM
same,IC50,HUVEC,0.123 µM
same,IC50,Plasmodium falciparum,3.6 µM
same,IC50,Rhodesain,> 50 µM
same,EC50,Macrophomina phaseolina [20],5.4 µM
same,Activity,[21],30.7 µM
same,IC50,[22],10 µM
same,IC50,[8],93 µM
same,IC50,[23],9 µM
same,EC50,[24],90.1 µM
Nc1nc(N)nc(Nc2ccc([As]3SCC(CO)S3)cc2)n1 (stereo unspecified) [MELARSOPROL],IC50,[1],0.004 µM
same,selectivity ratio,[25],1940
COc1ccc2c(c1)N(C)C(=O)[C@@]21C=C2C(=O)N3CCC[C@H]3C(=O)N2[C@H]1C=C(C)C [N-METHYL-6-METHOXYSPIROTRYPROSTATIN B],IC50,[1],> 50 µM
COc1ccc2c(c1)N(C)C(=O)[C@@]21C[C@H]2C(=O)N3CCC[C@H]3C(=O)N2[C@H]1C=C(C)C [N-METHYLSPIROTRYPROSTATIN A],IC50,[1],> 50 µM
N=C(N)c1ccc(OCCCCCOc2ccc(C(=N)N)cc2)cc1 [PENTAMIDINE],IC50,[1],0.007 µM
COc1ccc2c(c1)NC(=O)[C@@]21C[C@H]2C(=O)N3CCC[C@H]3C(=O)N2[C@H]1C=C(C)C [SPIROTRYPROSTATIN A],IC50,[1],> 50 µM
same,IC50,MCF7,> 300 µM
same,IC50,MDA-MB-468,110 µM
COc1ccc2c(c1)NC(=O)[C@@]21C=C2C(=O)N3CCC[C@H]3C(=O)N2[C@H]1C=C(C)C [SPIROTRYPROSTATIN B],IC50,[1],5.7 µM
same,IC50,Jurkat [2],21.1 µM
same,IC50,[3],> 50 µM
same,Ratio IC50,[4],3.7 ratio
same,IC50,Rhodesain,> 50 µM
Cc1ccc(/C(=N\NC(N)=S)c2cc(C(F)(F)F)cc(C(F)(F)F)c2)cc1 [THIOSEMICARBAZONE STANDARD],EC50,[1],1.3 µM
same,IC50,[3],15 µM
same,selectivity ratio,[5],19
same,EC50,HEK293,25 µM
same,IC50,Rhodesain,0.044 µM
COc1ccc2c3c4n(c2c1)[C@H](C=C(C)C)OOC(C)(C)C[C@@H]4N1C(=O)[C@@H]2CCCN2C(=O)[C@]1(O)[C@H]3O [VERRUCULOGEN],IC50,[1],12.9 µM
same,IC50,Jurkat [2],97 µM
same,IC50,[3],> 50 µM
same,Activity,Mus musculus,0.78 mg/kg
same,MIC,[26],12.2 µM
same,Activity,[27],1 µM
same,selectivity ratio,[4],7.5
same,IC50,Rhodesain,45 µM
same,LD50,[28],2.4 mg/kg
same,Activity,[29],1 µM
CN1C(=O)[C@]23SS[C@@]1(C)C(=O)N2[C@H]1Nc2ccccc2[C@@]1([C@@]12c4ccccc4N[C@@H]1N1C(=O)[C@]4(CO)SS[C@]1(C(=O)N4C)[C@H]2O)[C@@H]3O [VERTICILLIN B],IC50,[1],0.007 µM
same,EC50,HeLa; read-out: ED50 (the source's name),0.28 µM
same,Activity,[30],109%
same,IC50,Jurkat [2],< 0.6 µM
same,IC50,[3],> 50 µM
same,IC50,Rhodesain,> 50 µM
